The assay deals with JAK2 (JH1 domain-catalytic, Y1007F, Y1008F) kinase (Homo sapiens (Human), UniProt O60674, Y1007F/Y1008F). Briefly: JAK2 JH1 Domain Binding Assay. To be noted: qPCR readout. The procedure, abridged: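 Competitive binding format: test compound, DNA-tagged JAK2 JH1 (Y1007F/Y1008F; HEK293-expressed NFkB fusion) and ligand-coated magnetic beads incubated 1 h at room temperature. Kinase retained on beads released with 0.5 μmol/L non-biotinylated ligand, then measured by qPCR.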
For orientation: Quantitative PCR measures a nucleic acid by following its amplification.

Molecules are shown by their SMILES. A value given as a limit tells only on which side of the number the result lay.

Chain of JAK2 (JH1 domain-catalytic, Y1007F, Y1008F) kinase (O60674 849-1124 Y1007F/Y1008F): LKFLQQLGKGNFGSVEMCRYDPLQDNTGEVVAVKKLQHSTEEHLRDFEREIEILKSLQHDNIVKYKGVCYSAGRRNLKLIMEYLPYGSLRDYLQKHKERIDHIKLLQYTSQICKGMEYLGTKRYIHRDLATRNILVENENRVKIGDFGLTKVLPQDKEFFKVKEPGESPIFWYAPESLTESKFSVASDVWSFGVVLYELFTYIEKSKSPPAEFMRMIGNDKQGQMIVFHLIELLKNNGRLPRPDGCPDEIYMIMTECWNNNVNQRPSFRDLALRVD

As to `CN(C(=O)Nc1cc(C(F)(F)F)cn(C)c1=O)C1CCCN(c2cnc3[nH]ccc3n2)CC1` (single isomer, unassigned) [Example I-41-a, (R)- or (S)-1-(1-(5H-pyrrolo[2,3-b]pyrazin-2-yl)azepan-4-yl)-1-methyl-3-(1-methyl-2-oxo-5-(trifluoromethyl)-1,2-dihydropyridin-3-yl)urea], the Kd is 1000 to 5000 nM.
In the case of `CC(=O)Nc1cnc(N2CCC(N(C)C(=O)Nc3cc(CN4CCN(C)CC4)cc(C(F)(F)F)c3)CC2)cn1` [Example I-19, N-(5-(4-(1-methyl-3-(3-((4-methylpiperazin-1-yl)methyl)-5-(trifluoromethyl)phenyl)ureido)piperidin-1-yl)pyrazin-2-yl)acetamide] it was 10 to 50 nM; in that of `CN(C(=O)Nc1cc(C(F)(F)F)cn(C)c1=O)[C@H]1CCN(c2cnc3cn[nH]c3c2)C[C@H]1F` [Example I-95-a, 1-((3R,4S)-3-fluoro-1-(1H-pyrazolo[4,3-b]pyridin-6-yl)piperidin-4-yl)-1-methyl-3-(1-methyl-2-oxo-5-(trifluoromethyl)-1,2-dihydropyridin-3-yl)urea], below 10 nM; in that of `COc1c[nH]c2ncc(N3CC[C@@H](N(C)C(=O)Nc4cc(C(F)(F)F)cn(C)c4=O)[C@@H](F)C3)nc12` [Example I-152, 1-((3S,4R)-3-fluoro-1-(7-methoxy-5H-pyrrolo[2,3-b]pyrazin-2-yl)piperidin-4-yl)-1-methyl-3-(1-methyl-2-oxo-5-(trifluoromethyl)-1,2-dihydropyridin-3-yl)urea], below 10 nM.
In the case of `CC(=O)N1CCC(c2n[nH]c3ncc(N4CC[C@@H](N(C)C(=O)Nc5cc(C(F)(F)F)cn(C)c5=O)C(F)(F)C4)cc23)CC1` (single isomer, unassigned) [Example I-123-a] it was below 10 nM; in that of `CN(C(=O)Nc1cc(C(F)(F)F)cn(C)c1=O)C1CCN(c2cnccn2)CC1` [Example I-10, 1-methyl-3-(1-methyl-2-oxo-5-(trifluoromethyl)-1,2-dihydropyridin-3-yl)-1-(1-(pyrazin-2-yl)piperidin-4-yl)urea], 10 to 50 nM.
In the case of `CN(C(=O)Nc1cc(C(F)(F)F)cn(C)c1=O)[C@@H]1CCN(c2cnc3[nH]n(C)c(=O)c3c2)CC1(F)F` [Example I-96-a, (R)-1-(3,3-difluoro-1-(2-methyl-3-oxo-2,3-dihydro-1H-pyrazolo[3,4-b]pyridin-5-yl)piperidin-4-yl)-1-methyl-3-(1-methyl-2-oxo-5-(trifluoromethyl)-1,2-dihydropyridin-3-yl)urea] it was 10 to 50 nM; in that of `COc1n[nH]c2ncc(N3CC[C@H]4[C@H](C3)OCCN4C(=O)Nc3cc(C(F)(F)F)cn(C)c3=O)cc12` (single isomer, unassigned) [Example I-169-b], below 10 nM.
Regarding `COc1c[nH]c2ncc(N3CC[C@H](N(C)C(=O)Nc4cc(C(F)(F)F)cn(C)c4=O)C[C@@H]3C)nc12` [Example I-161-a, 1-((2S,4S)-1-(7-methoxy-5H-pyrrolo[2,3-b]pyrazin-2-yl)-2-methylpiperidin-4-yl)-1-methyl-3-(1-methyl-2-oxo-5-(trifluoromethyl)-1,2-dihydropyridin-3-yl)urea], the Kd was 50 to 1000 nM.
Take `COCc1cc2nc(N3CC[C@H](N(C)C(=O)Nc4cc(C(F)(F)F)cn(C)c4=O)[C@@H](OC)C3)cnc2[nH]1` [Example I-113-a, 1-((3S,4S)-3-methoxy-1-(6-(methoxymethyl)-5H-pyrrolo[2,3-b]pyrazin-2-yl)piperidin-4-yl)-1-methyl-3-(1-methyl-2-oxo-5-(trifluoromethyl)-1,2-dihydropyridin-3-yl)urea]: the Kd is 50 to 1000 nM.
In the case of `CN(C)c1n[nH]c2ncc(N3CCC(N(C)C(=O)Nc4cc(C(F)(F)F)cn(C)c4=O)CC3)cc12` [Example I-46, 1-(1-(3-(dimethylamino)-1H-pyrazolo[3,4-b]pyridin-5-yl)piperidin-4-yl)-1-methyl-3-(1-methyl-2-oxo-5-(trifluoromethyl)-1,2-dihydropyridin-3-yl)urea] it was below 10 nM.
For `CN(C(=O)Nc1cc(C(F)(F)F)cn(C)c1=O)[C@H]1CCN(c2cnc3[nH]n(C)c(=O)c3c2)CC1(F)F` [Example I-96-b, (S)-1-(3,3-difluoro-1-(2-methyl-3-oxo-2,3-dihydro-1H-pyrazolo[3,4-b]pyridin-5-yl)piperidin-4-yl)-1-methyl-3-(1-methyl-2-oxo-5-(trifluoromethyl)-1,2-dihydropyridin-3-yl)urea], the Kd was below 10 nM.
`COCCOc1n[nH]c2ncc(N3CC[C@H](N(C)C(=O)Nc4cc(C(F)(F)F)cn(C)c4=O)C[C@@H]3C)cc12` [Example I-132-a, 1-((2S,4S)-1-(3-(2-methoxyethoxy)-1H-pyrazolo[3,4-b]pyridin-5-yl)-2-methylpiperidin-4-yl)-1-methyl-3-(1-methyl-2-oxo-5-(trifluoromethyl)-1,2-dihydropyridin-3-yl)urea] registered a Kd of 10 to 50 nM.
In the case of `C[C@@H]1CN(C(=O)Nc2cc(C(F)(F)F)cn(C)c2=O)C2(CCN(c3cnc4[nH]ccc4n3)CC2)C1` (single isomer, unassigned) [Example I-53-a] it was 50 to 1000 nM; in that of `CN(C(=O)Nc1cc(C(F)(F)F)cn(C)c1=O)[C@H]1[C@@H]2CC[C@H]1CN(c1cnc3[nH]ccc3n1)C2` [Example I-79, 1-(3-(5H-pyrrolo[2,3-b]pyrazin-2-yl)-3-azabicyclo[3.2.1]octan-8-yl)-1-methyl-3-(1-methyl-2-oxo-5-(trifluoromethyl)-1,2-dihydropyridin-3-yl)urea], 10 to 50 nM; in that of `CN(C(=O)Nc1cc(C(F)(F)F)cn(C)c1=O)C1CCN(c2ccc(NC(=O)C3CC3)nc2)CC1` [Example I-24, N-(5-(4-(1-methyl-3-(1-methyl-2-oxo-5-(trifluoromethyl)-1,2-dihydropyridin-3-yl)ureido)piperidin-1-yl)pyridin-2-yl)cyclopropanecarboxamide], below 10 nM.
To `Cc1n[nH]c2ncc(N3CCC(N(C)C(=O)Nc4cc(C(F)(F)F)cn(C)c4=O)CC3)cc12` [Example I-28, 1-methyl-1-(1-(3-methyl-1H-pyrazolo[3,4-b]pyridin-5-yl)piperidin-4-yl)-3-(1-methyl-2-oxo-5-(trifluoromethyl)-1,2-dihydropyridin-3-yl)urea] belongs below 10 nM; to `Cn1cc(C(F)(F)F)cc(NC(=O)C2(C3CCN(c4cnccn4)CC3)CC2)c1=O` [Example I-5, N-(1-methyl-2-oxo-5-(trifluoromethyl)-1,2-dihydropyridin-3-yl)-1-(1-(pyrazin-2-yl)piperidin-4-yl)cyclopropane-1-carboxamide], 50 to 1000 nM; to `CC(=O)N1CCC(c2n[nH]c3ncc(N4CC[C@H](N(C)C(=O)Nc5cc(C(F)(F)F)cn(C)c5=O)C(F)(F)C4)cc23)CC1` (single isomer, unassigned) [Example I-123-b], below 10 nM.
Turning to `COCc1cc2nc(N3CC[C@H](N(C)C(=O)Nc4cc(C(F)(F)F)cn(C)c4=O)[C@H](F)C3)cnc2[nH]1` [Example I-111-b, 1-((3R,4S)-3-fluoro-1-(6-(methoxymethyl)-5H-pyrrolo[2,3-b]pyrazin-2-yl)piperidin-4-yl)-1-methyl-3-(1-methyl-2-oxo-5-(trifluoromethyl)-1,2-dihydropyridin-3-yl)urea], the Kd is below 10 nM.
In the case of `CO[C@H]1C[C@H](n2[nH]c3ncc(N4CCC(N(C)C(=O)Nc5cc(C(F)(F)F)cn(C)c5=O)CC4)cc3c2=O)C1` [Example I-119, 1-(1-(2-((1r,3r)-3-methoxycyclobutyl)-3-oxo-2,3-dihydro-1H-pyrazolo[3,4-b]pyridin-5-yl)piperidin-4-yl)-1-methyl-3-(1-methyl-2-oxo-5-(trifluoromethyl)-1,2-dihydropyridin-3-yl)urea] it was 1000 to 5000 nM; in that of `CN(C(=O)Nc1cc(C(F)(F)F)cn(C)c1=O)[C@@H]1CCN(c2cnc3[nH]ccc3n2)C[C@@H]1F` [Example I-64-a, 1-((3S,4R)-3-fluoro-1-(5H-pyrrolo[2,3-b]pyrazin-2-yl)piperidin-4-yl)-1-methyl-3-(1-methyl-2-oxo-5-(trifluoromethyl)-1,2-dihydropyridin-3-yl)urea], below 10 nM; in that of `CN(C(=O)Nc1cc(C(F)(F)F)cn(C)c1=O)C12CC(c3cnc4[nH]nc(OC5CCOC5)c4c3)(C1)C2` (mixture of isomers) [Example I-166, (S)-1-methyl-3-(1-methyl-2-oxo-5-(trifluoromethyl)-1,2-dihydropyridin-3-yl)-1-(3-(3-((tetrahydrofuran-3-yl)oxy)-1H-pyrazolo[3,4-b]pyridin-5-yl)bicyclo[1.1.1]pentan-1-yl)urea and (R)-1-methyl-3-(1-methyl-2-oxo-5-(trifluoromethyl)-1,2-dihydropyridin-3-yl)-1-(3-(3-((tetrahydrofuran-3-yl)oxy)-1H-pyrazolo[3,4-b]pyridin-5-yl)bicyclo[1.1.1]pentan-1-yl)urea], below 10 nM.
To `CN(C(=O)Nc1cc(C(F)(F)F)cn(C)c1=O)C1CCN(c2cnc3[nH]c(=O)[nH]c3c2)CC1` [Example I-76, 1-methyl-3-(1-methyl-2-oxo-5-(trifluoromethyl)-1,2-dihydropyridin-3-yl)-1-(1-(2-oxo-2,3-dihydro-1H-imidazo[4,5-b]pyridin-6-yl)piperidin-4-yl)urea] belongs below 10 nM; to `CO[C@H]1CN(c2cnc3[nH]c(C)cc3n2)CC[C@@H]1N(C)C(=O)Nc1cc(C(F)(F)F)cn(C)c1=O` [Example I-117-b, 1-((3S,4S)-3-methoxy-1-(6-methyl-5H-pyrrolo[2,3-b]pyrazin-2-yl)piperidin-4-yl)-1-methyl-3-(1-methyl-2-oxo-5-(trifluoromethyl)-1,2-dihydropyridin-3-yl)urea], 50 to 1000 nM.
Take `Cc1cc2nc(N3CCC(N(C)C(=O)Nc4cc(C(F)(F)F)cn(C)c4=O)C(F)(F)C3)cnc2[nH]1` (single isomer, unassigned) [Example I-37-b, (S)- or (R)-1-(3,3-difluoro-1-(6-methyl-5H-pyrrolo[2,3-b]pyrazin-2-yl)piperidin-4-yl)-1-methyl-3-(1-methyl-2-oxo-5-(trifluoromethyl)-1,2-dihydropyridin-3-yl)urea]: the Kd was below 10 nM.

The Kd is the equilibrium constant for the complex coming apart. A lower Kd goes with tighter binding.

These data come from patent US20240116892A1, “HETEROCYCLIC AMIDE AND UREA COMPOUNDS AS JAK2 INHIBITORS” (Ajax Therapeutics, Inc., priority 2022, published 2024).
